Reference: ChEMBL document CHEMBL1125860 (J Med Chem, 1991)
Blank lines part the entries; values can stand above or below the compound they belong to. Active and inactive are the calls of the source. The calls are words filed in the database; no cut-off is given here.

Key:
[1] = system: Rattus norvegicus; test: In vivo inhibition of galactitol accumulation in diaphragm of rat at 50 mg/kg/day; assay type: functional
[2] = target: Aldo-keto reductase family 1 member B1 (Bos taurus) (UniProt P16116); test: In vitro % decrease of aldose reductase measured in isolated partially purified bovine lens preparations at 10e-7 M concentration
[3] = system: Rattus norvegicus; test: In vivo inhibition of galactitol accumulation in sciatic nerves of rat at 50 mg/kg/day; assay type: functional; settings: Sciatic nerve
[4] = system: Rattus norvegicus; test: In vivo inhibition of galactitol accumulation in sciatic nerves of rat at 26 mg/kg/day; Not significant; assay type: functional, organism-based; settings: Sciatic nerve
[5] = system: Rattus norvegicus; test: In vivo inhibition of galactitol accumulation in diaphragm of rat at 26 mg/kg/day; assay type: functional
[6] = target: Aldo-keto reductase family 1 member B1 (Bos taurus) (UniProt P16116); test: In vitro % decrease of […] reductase was measured in isolated partially purified bovine lens preparations at 10e-7 M concentration
[7] = system: Rattus norvegicus; test: In vivo inhibition of galactitol accumulation in diaphragm of rat at 48 mg/kg/day; assay type: functional
[8] = organism: Rattus norvegicus; test: In vitro inhibition of sorbitol accumulation was measured in rat sciatic nerves incubated in the presence of 50 mM glucose at 10e-6 M concentration; assay type: functional, Sciatic nerve
[9] = organism: Rattus norvegicus; test: In vitro inhibition of sorbitol accumulation was measured in rat sciatic nerves incubated in the presence of 50 mM glucose at 10e-5 M concentration; assay type: functional, Sciatic nerve
[10] = system: Rattus norvegicus; test: In vivo inhibition of galactitol accumulation in sciatic nerves of rat at 48 mg/kg/day; Not significant; assay type: functional, organism-based; settings: Sciatic nerve
[11] = system: Rattus norvegicus; test: In vivo inhibition of galactitol accumulation in sciatic nerves of rat at 48 mg/kg/day; assay type: functional; settings: Sciatic nerve
[12] = target: Aldo-keto reductase family 1 member B1 (Bos taurus) (UniProt P16116); test: In vitro % decrease of aldose reductase was measured in isolated partially purified bovine lens preparations at 10e-7 M concentration; Not active
[13] = system: Rattus norvegicus; test: In vivo inhibition of galactitol accumulation in diaphragm of rat at 48 mg/kg/day; Not significant; assay type: functional, organism-based
[14] = system: Rattus norvegicus; test: In vivo inhibition of galactitol accumulation in diaphragm of rat at 25 mg/kg/day; assay type: functional
[15] = system: Rattus norvegicus; test: In vivo inhibition of galactitol accumulation in sciatic nerves at 5 mg/kg/day; Not significant; assay type: functional, organism-based; settings: Sciatic nerve
[16] = system: Rattus norvegicus; test: In vivo inhibition of galactitol accumulation in sciatic nerves of rat at 25 mg/kg/day; assay type: functional; settings: Sciatic nerve
[17] = system: Rattus norvegicus; test: In vivo inhibition of galactitol accumulation in sciatic nerves of rat at 47 mg/kg/day; Not significant; assay type: functional, organism-based; settings: Sciatic nerve
[18] = system: Rattus norvegicus; test: In vivo inhibition of galactitol accumulation in diaphragm of rat at 47 mg/kg/day; Not significant; assay type: functional, organism-based
[19] = system: Rattus norvegicus; test: In vivo inhibition of galactitol accumulation in diaphragm of rat at 50 mg/kg/day; Not significant; assay type: functional, organism-based
[20] = system: Rattus norvegicus; test: In vivo inhibition of galactitol accumulation in sciatic nerves of rat at 50 mg/kg/day; Not significant; assay type: functional, organism-based; settings: Sciatic nerve
[21] = system: Rattus norvegicus; test: In vivo inhibition of galactitol accumulation in sciatic nerves of rat at 24 mg/kg/day; Not significant; assay type: functional, organism-based; settings: Sciatic nerve
[22] = system: Rattus norvegicus; test: In vivo inhibition of galactitol accumulation in diaphragm of rat at 24 mg/kg/day; assay type: functional
[23] = system: Rattus norvegicus; test: In vivo inhibition of galactitol accumulation in diaphragm of rat at 27 mg/kg/day; assay type: functional
[24] = system: Rattus norvegicus; test: In vivo inhibition of galactitol accumulation in sciatic nerves of rat at 27 mg/kg/day; Not significant; assay type: functional, organism-based; settings: Sciatic nerve
[25] = system: Rattus norvegicus; test: In vivo inhibition of galactitol accumulation in diaphragm of rat at 49 mg/kg/day; assay type: functional
[26] = system: Rattus norvegicus; test: In vivo inhibition of galactitol accumulation in sciatic nerves of rat at 49 mg/kg/day; assay type: functional; settings: Sciatic nerve
[27] = system: Rattus norvegicus; test: In vivo inhibition of galactitol accumulation in sciatic nerves of rat at 25 mg/kg/day; Not significant; assay type: functional, organism-based; settings: Sciatic nerve
[28] = system: Rattus norvegicus; test: In vivo inhibition of galactitol accumulation in diaphragm of rat at 25 mg/kg/day; […]; assay type: functional, organism-based
[29] = system: Rattus norvegicus; test: In vivo inhibition of galactitol accumulation in sciatic nerves of rat at 2 mg/kg/day; Not significant; assay type: functional, organism-based; settings: Sciatic nerve
[30] = system: Rattus norvegicus; test: In vivo inhibition of galactitol accumulation in sciatic nerves of rat at 5 mg/kg/day; assay type: functional; settings: Sciatic nerve
[31] = system: Rattus norvegicus; test: In vivo inhibition of galactitol accumulation in diaphragm of rat at 5 mg/kg/day; assay type: functional
[32] = system: Rattus norvegicus; test: In vivo inhibition of galactitol accumulation in sciatic nerves of rat at 10 mg/kg/day; assay type: functional; settings: Sciatic nerve
[33] = system: Rattus norvegicus; test: In vivo inhibition of galactitol accumulation in sciatic nerves of rat at 24 mg/kg/day; assay type: functional; settings: Sciatic nerve
[34] = target: Aldo-keto reductase family 1 member B1 (Bos taurus) (UniProt P16116); test: In vitro% decrease of aldose reductase was measured in isolated partially purified bovine lens preparations at 10e-7 M concentration
[35] = system: Rattus norvegicus; test: In vivo inhibition of galactitol accumulation in diaphragm of rat at 52 mg/kg/day; Not significant; assay type: functional, organism-based
[36] = system: Rattus norvegicus; test: In vivo inhibition of galactitol accumulation in sciatic nerves of rat at 52 mg/kg/day; Not significant; assay type: functional, organism-based; settings: Sciatic nerve

Structure (SMILES): CCCCc1ccc2c(C(F)(F)F)c(OC)ccc2c1C(=O)N(C)CC(N)=O
inhibition in vivo at 48 mg/kg/day [11]: 30%
inhibition [12]: inactive
inhibition [13]: inactive

Structure (SMILES): COc1ccc2c(C(=S)N(C)CC(=O)O)c(F)ccc2c1C(F)(F)F
inhibition in vivo at 25 mg/kg/day [14]: 93%
inhibition [15]: inactive
inhibition in vivo at 25 mg/kg/day [16]: 92%

Structure (SMILES): CCOC(=O)N(CC(=O)O)C(=O)c1cc(Br)cc2c(Br)c(OC)ccc12
inhibition [17]: inactive
inhibition [18]: inactive
inhibition [2]: 84%

Structure (SMILES): COc1ccc2c(C(=O)N(C)CC(=O)O)cc(-c3ccccc3)cc2c1C(F)(F)F
inhibition [19]: inactive
inhibition [2]: 63%
inhibition [20]: inactive
Inhibition [8]: 32%
Inhibition [9]: 77%

Structure (SMILES): COc1ccc2c(C(=S)N(C)CC(=O)O)cc(Br)cc2c1Br
inhibition [4]: inactive
inhibition [2]: 94%
inhibition in vivo at 26 mg/kg/day [5]: 86%

Structure (SMILES): CCOC(=O)N(CC(=O)O)C(=O)c1c(OCC(F)(F)F)ccc2c(C(F)(F)F)c(OC)ccc12
inhibition [2]: 78%
inhibition in vivo at 27 mg/kg/day [23]: 39%
inhibition [24]: inactive
Inhibition [8]: 42%
Inhibition [9]: 72%

Structure (SMILES): COc1ccc2c(C(=O)N(C)CC(N)=O)c(OCC(F)(F)F)ccc2c1C(F)(F)F
inhibition [27]: inactive
inhibition [12]: inactive
inhibition [28]: inactive

Structure (SMILES): COc1ccc2c(C(=S)N(C)CC(=O)O)cc(F)cc2c1Br
inhibition [4]: inactive
inhibition [2]: 86%
inhibition in vivo at 26 mg/kg/day [5]: 86%

Structure (SMILES): COc1ccc2c(C(=S)N(C)CC(N)=O)c(F)ccc2c1C(F)(F)F
inhibition [29]: inactive
inhibition in vivo at 5 mg/kg/day [30]: 33%
inhibition in vivo at 5 mg/kg/day [31]: 80%
inhibition in vivo at 10 mg/kg/day [32]: 54%

Structure (SMILES): COc1ccc2c(C(=O)N(C)CC(=O)O)cc(Cc3ccc(Br)cc3F)cc2c1Br
inhibition [34]: 66%
inhibition [35]: inactive
Inhibition [8]: 63%
Inhibition [9]: 92%
inhibition [36]: inactive

Now from value to compound, other results behind:

inhibition [2]: 46%
Structure (SMILES): CCCOc1ccc2c(C(F)(F)F)c(OC)ccc2c1C(=O)N(C)CC(=O)O
inhibition in vivo at 50 mg/kg/day [1]: 57%
inhibition in vivo at 50 mg/kg/day [3]: 48%

inhibition [6]: 70%
Structure (SMILES): COc1ccc2c(C(=S)N(C)CC(=O)O)c(C)ccc2c1C(F)(F)F
inhibition [4]: inactive
inhibition in vivo at 26 mg/kg/day [5]: 91%

inhibition [2]: 32%
Structure (SMILES): COc1ccc2c(C(=O)N(C)CC(=O)O)c(C(F)(F)F)ccc2c1C(F)(F)F
inhibition in vivo at 48 mg/kg/day [7]: 52%
Inhibition [8]: 35%
Inhibition [9]: 65%
inhibition [10]: inactive

inhibition [2]: 81%
Structure (SMILES): COc1ccc2c(C(=S)N(C)CC(=O)O)c(Cl)ccc2c1C(F)(F)F
inhibition [21]: inactive
inhibition in vivo at 24 mg/kg/day [22]: 90%

inhibition [12]: inactive
Structure (SMILES): COc1ccc2c(C(=O)N(C)CC(N)=O)c(C(C)(C)C)ccc2c1C(F)(F)F
inhibition [13]: inactive
inhibition [10]: inactive

inhibition [2]: 83%
Structure (SMILES): COC(=O)N(CC(=O)O)C(=O)c1c(OC)ccc2c(C(F)(F)F)c(OC)ccc12
inhibition in vivo at 49 mg/kg/day [25]: 33%
inhibition in vivo at 49 mg/kg/day [26]: 36%

inhibition [2]: 69%
Structure (SMILES): COc1ccc2c(C(=O)N(C)CC(=O)O)c(SC)ccc2c1C(F)(F)F
inhibition [19]: inactive
inhibition [20]: inactive
Inhibition [8]: 41%
Inhibition [9]: 60%

inhibition [12]: inactive
Structure (SMILES): COc1ccc2c(C(=O)N(C)CC(N)=O)c(Cl)ccc2c1C(F)(F)F
inhibition in vivo at 24 mg/kg/day [33]: 62%
inhibition in vivo at 24 mg/kg/day [22]: 53%
